ChEMBL document CHEMBL1140941 (J Med Chem, 2009)
pEC50: −log10 of the molar value.

Columns and labels:
[1] = biological target: T1, Bile acid receptor (Homo sapiens) (UniProt Q96RI1); assay: Agonist activity at human FXR expressed in african green monkey CV1 cells co-expressing ECRE with RXR co-factor up to 10 uM by luciferase reporter gene assay relative to CDCA; assay type: functional, cell-based; conditions: CV-1
T1 sequence (whole entry): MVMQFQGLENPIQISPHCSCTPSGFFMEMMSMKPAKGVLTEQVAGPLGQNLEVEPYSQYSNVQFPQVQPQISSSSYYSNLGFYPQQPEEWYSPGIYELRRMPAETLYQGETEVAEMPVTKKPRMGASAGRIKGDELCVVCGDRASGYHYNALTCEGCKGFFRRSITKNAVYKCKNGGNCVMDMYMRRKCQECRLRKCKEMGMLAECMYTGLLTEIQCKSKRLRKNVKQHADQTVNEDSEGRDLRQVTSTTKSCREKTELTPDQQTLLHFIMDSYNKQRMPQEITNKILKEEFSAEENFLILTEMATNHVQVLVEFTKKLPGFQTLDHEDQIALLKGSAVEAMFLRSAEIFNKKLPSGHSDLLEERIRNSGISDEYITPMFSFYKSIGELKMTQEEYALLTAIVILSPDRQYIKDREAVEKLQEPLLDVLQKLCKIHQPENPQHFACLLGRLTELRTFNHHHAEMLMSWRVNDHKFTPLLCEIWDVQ

[2] = biological target: T2, Bile acid receptor (Homo sapiens, UniProt Q96RI1); assay: Agonist activity at human FXR expressed in african green monkey CV1 cells co-expressing ECRE with RXR co-factor by luciferase reporter gene assay; assay type: functional, cell-based, CV-1
T2 sequence (Q96RI1 whole entry): T1 sequence (whole entry)

Compound: CCOC(=O)C1=CN(C(=O)c2ccc(Cl)cc2)CC(C)c2c1[nH]c1ccccc21 (stereo not given)
- Efficacy [1]: 155%
- pEC50 [2]: 7.14

Compound: CCOC(=O)C1=CN(C(=O)c2ccc(F)c(F)c2)CC(C)c2c1[nH]c1ccccc21 (stereo not given)
- Efficacy [1]: 170%
- pEC50 [2]: 7.49

Compound: CCOC(=O)C1=CN(C(=O)c2ccc(F)cc2)CC(C)(C)c2c1[nH]c1ccccc21
- Efficacy [1]: 148%
- pEC50 [2]: 7.66

Compound: CCOC(=O)C1=CN(C(=O)c2ccc(Cl)cc2)CC(C)(C)c2c1[nH]c1ccccc21
- Efficacy [1]: 190%
- pEC50 [2]: 7.60

Compound: CC(C)OC(=O)C1=CN(C(=O)c2ccc(F)cc2)CC(C)(C)c2c1[nH]c1ccccc21
- Efficacy [1]: 146%
- pEC50 [2]: 8.10

Compound: CC(C)OC(=O)C1=CN(C(=O)c2ccc(F)cc2)CCc2c1[nH]c1ccccc21
- Efficacy [1]: 120%
- pEC50 [2]: 6.30

Compound: CCCCOC(=O)C1=CN(C(=O)c2ccc(F)cc2)CCc2c1[nH]c1ccccc21
- Efficacy [1]: 109%
- pEC50 [2]: 5.96

Compound: CCOC(=O)C1=CN(C(=O)c2ccc(F)cc2)CC(C)c2c1[nH]c1ccccc21 (stereo not given)
- Efficacy [1]: 160%
- pEC50 [2]: 7.24

Compound: CCOC(=O)C1=CN(C(=O)c2ccc(OC)cc2)CC(C)(C)c2c1[nH]c1ccccc21
- Efficacy [1]: 139%
- pEC50 [2]: 7.54

Compound: CCOC(=O)C1=CN(C(=O)c2ccc(OC)cc2)CC(C)c2c1[nH]c1ccccc21 (stereo not given)
- Efficacy [1]: 145%
- pEC50 [2]: 7.22

Compound: CCCOC(=O)C1=CN(C(=O)c2ccc(F)cc2)CCc2c1[nH]c1ccccc21
- Efficacy [1]: 130%
- pEC50 [2]: 6.30

Compound: CCOC(=O)C1=CN(C(=O)c2ccc(F)cc2)CCc2c1[nH]c1ccccc21
- Efficacy [1]: 100%
- pEC50 [2]: 6.22

Compound: CCOC(=O)C1=CN(C(=O)c2ccc(F)c(F)c2)CC(C)(C)c2c1[nH]c1ccccc21
- Efficacy [1]: 144%
